US9416118B2, “Docosahexaenoyl ethanolamides” (The Brigham and Women's Hospital, Inc., priority 2011, dated 2016)
“Also recorded” adds a separate entry of the source. Where two headings read alike, the source gives them in different places.

Columns and labels:
[1] = system: platelet-leukocyte aggregates; test: PAF-stimulated platelet-leukocyte aggregate formation in whole blood (overall statements); format: cell-based; details: human whole blood, 100 nM PAF, 0.01-100 nM dose range
Procedure: (§1) FIG. 5. […] Human whole blood stimulated with PAF (100 nM) was incubated with 10,17-diHDHEA, 15-HEDPEA or DHEA for 30 min, 37° C. The incubation was stopped via ice-cold RBC lysis buffer. The majority of RBCs were removed and remaining cells were labeled. Platelet-leukocyte aggregate formation or P-selectin mobilization was analyzed using FACS (see Methods). Dose response inhibition of a) platelet-monocyte aggregate formation, b) representative dot plot of platelet-monocyte aggregates, c) platelet-PMN aggregate formation, d) platelet P-selectin mobilization, with indicated products. (diamonds 10,17-diHDHEA; triangles 15-HEDPEA; squares DHEA). Results are mean±SEM of n=5-6 donors. P<0.05 compared to vehicle treatment.
(§2) Whole blood was incubated with either vehicle, HPLC isolated 10,17-diHDHEA or 15-HEDPEA (0.01-100 nM) for 15 min at 37° C. with intermittent mixing. Vehicle or PAF (100 nM, PAF C-16, Cayman Chemical, Ann Arbor, Mich.) was added for another 30 min at 37° C. with intermittent mixing. Incubation was stopped by ice-cold red blood cell lysis buffer (10 min at 4° C.). Cells were collected using centrifugation (210 g, 5 min, 4° C.) then fixed with 3% formalin (15 min, 4° C.). Cells were stained with FITC-anti-human CD41 (1:100, v/v) and PE-anti-human-CD62P (1:100, v/v) for 20 min at 4° C., and were analyzed using a flow cytometry and Cell Quest software as in (23). Cellular composition within whole blood was determined by forward and side scattering as well as cell-specific markers, anti-human-CD41 for platelets, anti-human-CD14 for monocytes and anti-human-CD16 for neutrophils.

platelet P-selectin = test: Platelet P-selectin surface expression in PAF-stimulated whole blood; format: cell-based, human; details: 10 pM to 100 nM
Procedure: as §1
(§3) Whole blood was incubated with either vehicle, HPLC isolated 10,17-diHDHEA or 15-HEDPEA (0.01-100 nM) for 15 min at 37° C. with intermittent mixing. […] Cells were stained with FITC-anti-human CD41 (1:100, v/v) and PE-anti-human-CD62P (1:100, v/v) for 20 min at 4° C., and were analyzed using a flow cytometry and Cell Quest software as in (23). Cellular composition within whole blood was determined by forward and side scattering as well as cell-specific markers, anti-human-CD41 for platelets, anti-human-CD14 for monocytes and anti-human-CD16 for neutrophils.

human PMN = test: Microfluidic chamber screening of PMN chemotaxis in an IL-8 gradient; format: cell-based
Procedure: The fabrication and surface modification of the microfluidic devices were prepared as in refs. (9,22). Whole blood (5-10 μl) diluted in HBSS (1:10, v/v) was introduced into the chemotaxis chamber via a cell inlet and neutrophils were captured along the chamber via P-selectin tethering. Next, the transversal gradient of IL-8 (0-10 nM) was introduced to the chemotaxis chamber. After fifteen minutes, novel DHEA metabolites (at a uniform concentration) were introduced to the chemotaxis chamber from the second gradient generator network, and 10 nM IL-8 gradient was maintained Single-cell neutrophil chemotaxis was recorded using microscopy (Nikon, Eclipse E600) equipped with a video camera (Diagnostic, RT Slider) and subject to analysis using ImageJ software (9).
In parallel to structure elucidation, chemotactic screening of HPLC isolated DHEA metabolites obtained from mouse brain was carried out utilizing microfluidic chamber (FIG. 1c). After IL-8 (0-10 nM gradient) was introduced to the main channel of the microfluidic device, P-selectin tethered leukocytes rapidly migrated along the IL-8 chemotactic gradient at an average rate of 2.3 μm/min. After 15 min, the mixture of metabolites was infused into the microfluidic main channel while an IL-8 (0-10 nM) gradient was maintained (FIG. 1c, left panel). […] This decrease in chemotaxic velocity was maintained even after the gradient was switched back to IL-8.
HPLC isolated dioxygenated DHEA products were individually screened for direct PMN actions using microfluidic chambers.

platelet-PMN aggregates = test: PAF-stimulated platelet-PMN aggregate formation in whole blood; format: cell-based, human; details: 100 nM PAF
Procedure: as §1, §3

[2] = system: platelet-monocyte aggregates; test: PAF-stimulated platelet-monocyte aggregate formation in whole blood; format: cell-based, human; details: 100 nM PAF; for Decrease of platelet-monocyte aggregate formation: 10 pM compound, human whole blood
Procedure: as §1, §2

CB1 receptor [3] = biological target: T1, CB1 receptor (Homo sapiens, UniProt P21554); test: CB1 beta-arrestin receptor activation; format: cell-based; set-up: expressed in transfected cells; host or cells: HEK cells; details: HEK cells overexpressing CB1, beta-arrestin system
Procedure: (§4) FIG. 4. […] Ligand receptor interactions were determined by increases in chemiluminescence generated upon interaction of the EA labeled beta arrestin with the Pro-Link tagged receptor (see Methods). […] See text for more details.
(§5) To this end, recombinant human CB receptors were overexpressed in a beta-arrestin system as described in Experimental Procedures.

human CB2 receptor [4] = biological target: T2, human CB2 receptor (Homo sapiens, UniProt P34972); test: CB2 beta-arrestin receptor activation (PathHunter chemiluminescence); format: cell-based
Procedure: as §4
(§6) Receptor activation with the CB2 beta arrestin system was carried out essentially as in (20,21). HEK cells stably overexpressing human CB2 receptor tagged with Pro-Link and EA labeled beta-arrestin (Discoverx, Fremont Calif.) were plated at 20,000 cells/well of a 96 well plate. […] Ligand receptor interaction was determined by measuring chemiluminescence using the Pathhunter EFC detection kit (Discoverx, Fremont, Calif.), generated upon coupling of the EA labeled beta arrestin with the Pro-Link tagged receptor, with a plate reader (Envision, Perkin Elmer, Santa Clara, Calif.).
as §5

[5] = system: mouse ischemia reperfusion second organ lung injury; test: Hind limb ischemia / second organ lung reperfusion injury; format: in vivo
Procedure: Supplemental FIG. 4. 15-HEDPEA is protective in mouse ischemia reperfusion second organ lung injury. Mice were subjected to hind limb ischemia for 1 hr using tourniquets. 15-HEDPEA was intravenously administered 5 min before tourniquet removal. After 2 hr reperfusion, mouse lungs were harvested and the tissue levels of myeloperoxidase (MPO) were determined using a mouse MPO ELISA. Results are expressed as reduction in lung associated decrease in leukocyte myeloperoxidase values (n=3-6).
Murine hind limb vascular occlusion second organ lung reperfusion injury was performed using 6- to 8-week-old FVB male mice and carried out as in (24).

human CB2 receptor [6] = biological target: T2, human CB2 receptor; test: AM630 inhibition of ligand-stimulated activation of cells over-expressing CB2; format: cell-based
Procedure: as §4, §6, §5

CB1 receptor [7] = biological target: T1, CB1 receptor; details: from reference 31; read-out: Ki, affinity to CB1 receptor; cited from earlier work
[8] = 10 nM compound, 0-10 nM IL-8 gradient
[9] = HEK cells overexpressing human CB2, beta-arrestin system, 1 h, 37° C., 1 pM to 100 nM, read-out: EC50 for activation of CB2

T1 sequence (P21554 whole entry): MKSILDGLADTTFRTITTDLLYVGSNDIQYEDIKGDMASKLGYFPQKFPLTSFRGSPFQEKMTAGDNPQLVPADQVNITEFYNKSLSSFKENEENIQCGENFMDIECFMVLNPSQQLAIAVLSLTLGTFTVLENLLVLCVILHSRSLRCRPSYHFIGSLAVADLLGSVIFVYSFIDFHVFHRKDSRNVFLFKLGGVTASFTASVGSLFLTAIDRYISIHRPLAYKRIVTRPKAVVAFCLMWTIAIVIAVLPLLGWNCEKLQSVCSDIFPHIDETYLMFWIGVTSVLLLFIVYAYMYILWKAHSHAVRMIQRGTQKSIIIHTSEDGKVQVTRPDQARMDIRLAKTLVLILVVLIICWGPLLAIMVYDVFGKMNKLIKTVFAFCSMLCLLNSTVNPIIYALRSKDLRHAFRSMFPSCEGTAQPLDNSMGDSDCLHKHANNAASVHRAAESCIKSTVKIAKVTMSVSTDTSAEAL
T2 sequence (P34972 whole entry): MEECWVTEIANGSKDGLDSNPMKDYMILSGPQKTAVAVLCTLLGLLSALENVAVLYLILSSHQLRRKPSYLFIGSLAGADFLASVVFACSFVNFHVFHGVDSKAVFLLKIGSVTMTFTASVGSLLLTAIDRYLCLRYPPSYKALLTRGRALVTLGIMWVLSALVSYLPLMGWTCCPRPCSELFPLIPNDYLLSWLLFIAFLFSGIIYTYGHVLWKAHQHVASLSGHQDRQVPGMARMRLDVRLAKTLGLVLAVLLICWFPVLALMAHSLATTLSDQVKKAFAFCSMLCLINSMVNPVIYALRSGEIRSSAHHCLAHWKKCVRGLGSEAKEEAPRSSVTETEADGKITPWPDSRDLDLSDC

CC/C=C\C[C@H](O)/C=C/C=C\C=C\[C@H](O)C/C=C\C/C=C\CCC(=O)NCCO (single isomer, unassigned) [10,17-diHDHEA, 10,17-dihydroxydocosa-4Z,7Z,11,13Z,15,19Z-hexaenoylethanolamide]
Effect on platelet-leukocyte aggregate formation (in words) [1]: prevented formation of platelet-leukocyte aggregates | Effect on platelet-leukocyte aggregate formation (in words) ([1]; listed as 10,17S-diHDHEA): block PAF-stimulated platelet-leukocyte aggregate formation | Effect on P-selectin surface expression of platelets (in words) (platelet P-selectin): blocked P-selectin surface expression | Effect on P-selectin surface expression of platelets (in words) (platelet P-selectin; listed as 10,17-diHDEA): inhibited | Effect on PMN chemotaxis (in words) (human PMN; [8]): did not significantly regulate chemotaxis | Effect on PMN chemotaxis (in words) (human PMN; 10 μM compound, IL-8 gradient): rapidly stopped PMN chemotaxis | Decrease of platelet-PMN aggregates (platelet-PMN aggregates; human whole blood): 25%-35% | Inhibition of PMN-platelet aggregate formation (in words) (platelet-PMN aggregates; concentrations as low as 10 pM): inhibited | Decrease of platelet-monocyte aggregate formation [2]: ~30% | Maximum reduction of platelet-monocyte aggregate formation ([2]; 100 pM compound, bell-shaped dose response): ~40% | Activation of CB1 receptors (in words) (CB1 receptor [3]): activated CB1 receptors but required much higher concentrations | EC50 (human CB2 receptor [4]; [9]): 0.39 nM

CC/C=C\C[C@H](O)/C=C/C=C\C/C=C\C/C=C\C=C\[C@H](O)CCC(=O)NCCO [4,17-diHDHEA, 4,17-dihydroxydocosa-5,7Z,10Z,13Z,15,19Z-hexaenoylethanolamide]
Effect on PMN chemotaxis (in words) (human PMN; [8]): did not significantly regulate chemotaxis

CC/C=C\C[C@H](O)/C=C/C=C\C/C=C\C=C\[C@H](O)C/C=C\CCC(=O)NCCO [7,17-diHDHEA, 7,17-dihydroxydocosa-4Z,8E,10Z,13Z,15,19Z-hexaenoylethanolamide]
Effect on PMN chemotaxis (in words) (human PMN; [8]): did not significantly regulate chemotaxis

CCCCC[C@H](O)/C=C/C=C\C/C=C\C/C=C\CCCC(=O)NCCO [15(S)-HAEA, 15(S)-HETE ethanolamide, reference compound]
Stimulation of CB2 receptors (in words) (human CB2 receptor [4]; beta-arrestin system, tested dose range 1 pM to 100 nM): did not stimulate CB2 receptors

CC/C=C\CC1OC1C(O)/C=C\C/C=C\C/C=C\C/C=C\CCC(=O)NCCO (centres unmarked) [15-HEDPEA, 15-hydroxy-16(17)-epoxydocosa-4Z,7Z,10Z,13Z,19Z-pentaenoylethanolamide]
Effect on platelet-leukocyte aggregate formation (in words) [1]: block PAF-stimulated platelet-leukocyte aggregate formation; also recorded: prevented formation of platelet-leukocyte aggregates | Reduction of lung PMN infiltration (MPO) compared to vehicle ([5]; 1 μg/mouse intravenously, 1 h ischemia, 2 h reperfusion): ~50% | Organ protection (in words) ([5]; mouse reperfusion second organ injury, 1 μg/mouse): organ protective | Effect on PMN chemotaxis (in words) (human PMN; [8]): effectively stopped PMN chemotaxis; also recorded: stopped further PMN migration | Time after which further PMN migration stopped (human PMN; 10 nM compound, IL-8 gradient): ~4 min | Decrease of platelet-monocyte aggregate formation [2]: ~30% | Activation of CB1 receptors (in words) (CB1 receptor [3]): activated CB1 receptors but required much higher concentrations | EC50 (human CB2 receptor [4]; [9]): 0.1 nM

COc1ccc(C(=O)c2c(C)n(CCN3CCOCC3)c3cc(I)ccc23)cc1 [AM630]
AM630 inhibition of CB2 activation stimulated with 15-HEDPEA (human CB2 receptor [6]; 15-HEDPEA 10 nM): inhibited activation | AM630 inhibition of CB2 activation stimulated with AEA (human CB2 receptor [6]; AEA 10 nM, positive control): inhibited activation | AM630 inhibition of CB2 interaction with 10,17-diHDHEA (human CB2 receptor [6]; at higher concentration, n=3, data not shown): inhibited GPCR CB2 interaction

CCC=CCC=CCC=CCC=CCC=CCC=CCCC(=O)NCCO [DHEA, docosahexaenoylethanolamide, reference compound]
Effect on platelet-leukocyte aggregate formation (in words) [1]: did not significantly inhibit; also recorded: not active | Ki (CB1 receptor [7]): 324 nM | EC50 (human CB2 receptor [4]): 9.8 nM
